The record followed here is publication PMC10581193 (Microbiology Spectrum, 2023).

Structures are written as SMILES. Read-outs that look alike come from different tables or passages of the source.

In assay [1] the target is DprE1 (Mycobacterium tuberculosis, UniProt P9WJF1, Y314H). Set-up: species or system M. tuberculosis H37Ra.
Assay [2] deals with Y198. It counts as cell-based, M. tuberculosis.
The subject of assay [3] is Y48. It counts as cell-based, M. tuberculosis.
For assay [4], the system named is Y17. It counts as cell-based, M. tuberculosis.

On to `Cc1nc(C)c(CN2CCOc3c(C(=O)NCC(F)(F)F)cc(C4CC4)cc32)nc1C` [B18, 6-cyclopropyl-N-(2,2,2-trifluoroethyl)-4-((3,5,6-trimethylpyrazin-2-yl)methyl)-3,4-dihydro-2H-benzo[b][1,4]oxazine-8-carboxamide], for which the Amino-acid substitution result in assay [1] was “Tyr→His”.
In the case of `CC[C@@H](CO)NCCN[C@@H](CC)CO` [EMB, ethambutol], the “Drug resistance of clinical isolate” value in assay [2] (strain Y198) and in assay [3] (strain Y48) was “R” in each case.
In the case of `NNC(=O)c1ccncc1` [INH, isoniazid], the “Drug resistance of clinical isolate” value in assay [2] (strain Y198), in assay [4] (strain Y17) and in assay [3] (strain Y48) was “R” each time.
In the case of `Nc1ccc(C(=O)O)c(O)c1` [PA, p-aminosalicylic acid], the “Drug resistance of clinical isolate” value is “R” in assay [2] (strain Y198) and “S” in assay [3] (strain Y48).
Turning to `NC(=O)c1cnccn1` [PZA, pyrazinamide], the “Drug resistance of clinical isolate” value in assay [2] (strain Y198) is “R”.
Same read-out and setting: in the case of `CO[C@H]1/C=C/O[C@@]2(C)Oc3c(C)c(O)c4c(c3C2=O)C2=NC3(CCN(CC(C)C)CC3)NC2=C(NC(=O)/C(C)=C\C=C\[C@H](C)[C@H](O)[C@@H](C)[C@@H](O)[C@@H](C)[C@H](OC(C)=O)[C@@H]1C)C4=O` [RFB, rifabutin] it was “R”.
Take `CO[C@H]1/C=C/O[C@@]2(C)Oc3c(C)c(O)c4c(O)c(c(/C=N/N5CCN(C6CCCC6)CC5)c(O)c4c3C2=O)NC(=O)/C(C)=C\C=C\[C@H](C)[C@H](O)[C@@H](C)[C@@H](O)[C@@H](C)[C@H](OC(C)=O)[C@@H]1C` [RFT, rifapentine]: the “Drug resistance of clinical isolate” value in assay [2] (strain Y198) is recorded as “R”.
For the molecule `CO[C@H]1/C=C/O[C@@]2(C)Oc3c(C)c(O)c4c(O)c(c(/C=N/N5CCN(C)CC5)c(O)c4c3C2=O)NC(=O)/C(C)=C\C=C\[C@H](C)[C@H](O)[C@@H](C)[C@@H](O)[C@@H](C)[C@H](OC(C)=O)[C@@H]1C` [RMP, rifampicin], the “Drug resistance of clinical isolate” value in assay [2], in assay [4] and in assay [3] was “R” in each case.
With `[H]/N=C(/N)N[C@H]1[C@H](O)[C@@H](O)[C@H](O[C@@H]2O[C@@H](C)[C@](O)(C=O)[C@H]2O[C@@H]2O[C@@H](CO)[C@H](O)[C@@H](O)[C@@H]2NC)[C@@H](N/C(N)=N\[H])[C@@H]1O` [SM, streptomycin], in assay [2] (strain Y198), the “Drug resistance of clinical isolate” value is reported as “R”.
As for `COc1ncnc(Cn2cc(C(=O)NCCO)c3ncc(C)cc32)c1C` [TBA-7371, reference compound], the Amino-acid substitution entry in assay [1] is given as “Tyr→His”.
